Experiments:
P. aeruginosa = settings: observed previously; by activating bacterial quorum-sensing systems; cited from earlier work
P. aeruginosa biofilm = settings: Desriac et al. 2017, 2018; Rosay et al. 2015; cited from earlier work
[1] = test system: preformed biofilm of P. aeruginosa PA14; test: microbe, parasite or virus in culture; settings: for % Inhibition (30 min) / Biovolume (30 min): 30 min exposure; for Biovolume (30 min): non-treated 22.19; for Biovolume (2 h): non-treated 21.1 (mean of all controls)
Experimental: Briefly, from an 18 h pre-culture, a bacterial suspension at OD600=0.08 prepared in sterile physiological saline solution was injected into each channel of the flow chamber. The bacteria were left for 2 h at 37° C. under static conditions (no flow) so that they adhered to the glass slide. Study of biofilm formation was then conducted under a flow of LB medium (2.5 ml/h) for 24 h at 37° C.
[…] Treatment of the preformed biofilm was conducted for 2 h at 37° C. under static conditions.
(§1) Treatment of the preformed biofilm was conducted for 2 h at 37° C. under static conditions.
To test the membrane integrity of the bacteria, a mixture of 5 μM SYTO 9 Green and 0.3 μM propidium iodide (PI) was used (Live/Dead BacLight Bacterial Viability Kit, Invitrogen).
as §1, §1, §1, §1
Treatment of the biofilm was conducted for 2 h at 37° C. under static conditions. […] Next, 300 μl of tobramycin (50 μg/ml) or 300 μl of milliQ sterile water (control conditions) were injected into the two channels of the flow chamber pre-exposed to ANP. The second treatment of the preformed biofilm was again conducted for 2 h at 37° C. under static conditions.

[2] = test system: A549 human pulmonary epithelial cells infected with P. aeruginosa PA14; test: LDH release by A549 cells infected with P. aeruginosa PA14 pre-treated with ANP (bacterial cytotoxicity); assay type: cell-based; settings: for % LDH (dead cells): 6 h, MOI 10, PA14 non-treated 56.4 ± 5.5
Experimental: The line of human pulmonary epithelial cells of type II A549 (ATCC-CCL185TM, ATCC Manassas, Va.) was placed in culture at 37° C. under 5% CO2 atmosphere in DMEM medium (Lonza) supplemented with 10% foetal calf serum (Lonza) and 1% penicillin and streptomycin (Penistrep, Lonza). Under routine cell culture, the cells were seeded in a 25 ml flask and used at 80% confluence.
For cytotoxicity tests, the cells were seeded in 24-well plates to a final density of 3×10^5 cells per well and cultured 48 h before use. For a minimum time of 24 h before the infection tests, the cells were deprived of antibiotics and foetal calf serum through the addition of a medium without fresh serum.
The amount of LDH released by the eukaryote cells in the presence of bacteria, whether or not exposed to ANP (concentration of 1 μM at 10 nM), was determined using the Cytotox 96 enzymatic test (Promega, Charbonnières, France). The A549 cells were incubated for 6 h on a control (without treatment) or with P. aeruginosa PA14 (pre-treated with ANP) with a multiplicity of infection of 10. A lysis buffer consisting of Triton X-100 solution (9% in water), was employed to determine the maximum LDH potentially released by the A549 cells under the experimental conditions (100% LDH release). A level of background noise was determined using the culture medium alone and defined as 0% LDH release, to exclude contribution by the culture medium. Percentage LDH release in the cell population was then calculated with the equation: […]

[3] = target: AmiC sensor of P. aeruginosa (Pseudomonas aeruginosa, UniProt P27017); settings: Rosay et al. (2015); cited from earlier work
[4] = test system: P. aeruginosa biofilm in formation; test: Formation of the P. aeruginosa biofilm under dynamic conditions; assay type: cell-based, Pseudomonas aeruginosa; settings: ANP 0.1 μM
Experimental: After 3 h pre-culture in LB medium at 37° C., P. aeruginosa was inoculated at OD600=0.08 in LB medium and sub-cultured for 2 h.
The ANP (Calbiochem Merck) was added 2 h after the start of culture, a time corresponding to the middle of the exponential growth phase of the bacteria. Final bacterial density and absence of contamination were controlled by seeding.
The biofilms were formed under dynamic conditions at 37° C. in a 3-channel flow chamber as described in Bazire et al. (2010) J. Bacteriol. 192:3001-3010. Briefly, from an 18 h pre-culture, a bacterial suspension at OD600=0.08 prepared in sterile physiological saline solution was injected into each channel of the flow chamber. The bacteria were left for 2 h at 37° C. under static conditions (no flow) so that they adhered to the glass slide. Study of biofilm formation was then conducted under a flow of LB medium (2.5 ml/h) for 24 h at 37° C.

P. aeruginosa P14 = test: Growth of P. aeruginosa in liquid medium in the presence of ANP; assay type: cell-based, Pseudomonas aeruginosa; settings: ANP at 1 μM and 0.1 μM
Experimental: The bacterial strains were cultured at 37° C. in Luria Bertani medium (LB) under agitation.
To determine a potential direct effect of ANP on the growth of P. aeruginosa, the inventors studied the impact of ANP at 1 μM and 0.1 μM on the growth of P. aeruginosa P14 in a liquid medium.

[5] = ANP 300 ng/ml (0.1 μM), 2 h exposure

Chain of AmiC sensor of P. aeruginosa (P27017 whole entry): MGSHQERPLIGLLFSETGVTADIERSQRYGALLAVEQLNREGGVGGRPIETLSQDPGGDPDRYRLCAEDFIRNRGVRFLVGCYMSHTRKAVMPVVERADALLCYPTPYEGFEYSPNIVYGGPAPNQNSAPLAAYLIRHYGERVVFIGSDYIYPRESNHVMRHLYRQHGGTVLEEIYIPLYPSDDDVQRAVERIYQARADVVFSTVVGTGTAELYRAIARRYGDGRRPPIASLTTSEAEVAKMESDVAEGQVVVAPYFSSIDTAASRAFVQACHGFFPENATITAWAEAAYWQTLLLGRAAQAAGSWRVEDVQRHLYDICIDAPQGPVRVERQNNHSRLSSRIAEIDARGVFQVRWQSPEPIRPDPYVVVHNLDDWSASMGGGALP

Compound: C-type Natriuretic Peptide [CNP]
- bacterial virulence and cytotoxicity (P. aeruginosa): slightly increased
- formation of P. aeruginosa biofilm (P. aeruginosa biofilm): prevent the formation

Compound: CC[C@H](C)[C@@H]1NC(=O)[C@H](CCCNC(=N)N)NC(=O)[C@H](CC(=O)O)NC(=O)[C@H](CCSC)NC(=O)[C@H](CCCNC(=N)N)NC(=O)CNC(=O)CNC(=O)[C@H](Cc2ccccc2)NC(=O)[C@@H](NC(=O)[C@H](CO)NC(=O)[C@H](CO)NC(=O)[C@H](CCCNC(=N)N)NC(=O)[C@H](CCCNC(=N)N)NC(=O)[C@H](CC(C)C)NC(=O)[C@@H](N)CO)CSSC[C@@H](C(=O)N[C@@H](CC(N)=O)C(=O)N[C@@H](CO)C(=O)N[C@@H](Cc2ccccc2)C(=O)N[C@@H](CCCNC(=N)N)C(=O)N[C@@H](Cc2ccc(O)cc2)C(=O)O)NC(=O)CNC(=O)[C@H](CC(C)C)NC(=O)CNC(=O)[C@H](CO)NC(=O)[C@H](CCC(N)=O)NC(=O)[C@H](C)NC(=O)CNC1=O [ANP, Atrial Natriuretic Peptide]
- % Inhibition (30 min) ([1]; ANP 0.3 ng/ml): 57.5 (*) %
- Biovolume (30 min) ([1]; ANP 0.3 ng/ml): 9.5 μm^3/μm^2
- % Inhibition (2 h) ([1]; ANP 0.3 ng/ml, 2 h exposure): 45.1 (**) %
- Biovolume (2 h) ([1]; ANP 0.3 ng/ml, 2 h exposure): 10.6 μm^3/μm^2
- % Inhibition (30 min) ([1]; ANP 3 ng/ml): 59.1 (*) %
- Biovolume (30 min) ([1]; ANP 3 ng/ml): 8.8 μm^3/μm^2
- % Inhibition (2 h) ([1]; ANP 3 ng/ml, 2 h exposure): 65.9 (***) %
- Biovolume (2 h) ([1]; ANP 3 ng/ml, 2 h exposure): 6.3 μm^3/μm^2
- % Inhibition (30 min) ([1]; ANP 30 ng/ml): 69.0 (*) %
- Biovolume (30 min) ([1]; ANP 30 ng/ml): 6.7 μm^3/μm^2
- % Inhibition (2 h) ([1]; ANP 30 ng/ml, 2 h exposure): 72.5 (***) %
- Biovolume (2 h) ([1]; ANP 30 ng/ml, 2 h exposure): 4.4 μm^3/μm^2
- biofilm structure dispersed ([1]; ANP 0.1 μM for 2 h, even 30 minutes): about 80%
- thickness of the biofilm ([1]; ANP 0.1 μM, 2 h exposure): major reduction
- bacterial biomass reduced compared with control ([1]; ANP 0.1 μM, 2 hours exposure (P<0.001)): 81.4±4.1%
- % Inhibition (30 min) ([1]; ANP 300 ng/ml (0.1 μM)): 80.2 (*) %
- Biovolume (30 min) ([1]; ANP 300 ng/ml (0.1 μM)): 4.4 μm^3/μm^2
- % Inhibition (2 h) [1, 5]: 81.4 (***) %
- Biovolume (2 h) [1, 5]: 4.9 μm^3/μm^2
- % Inhibition ([1]; ANP 10^−8 M alone, 2 h (colistin experiment)): 73.5%
- % Inhibition ([1]; ANP 10^−8 M alone, 2 h (imipenem experiment)): 75.4%
- % Inhibition ([1]; ANP 10^−8 M alone, 2 h (polymyxin B experiment)): 75.3%
- Biovolume ([1]; ANP 10^−8 M alone, 2 h, non-treated 18.2 (polymyxin B experiment)): 4.5 μm^3/μm^2
- Biovolume ([1]; ANP 10^−8 M alone, 2 h, non-treated 18.5 (colistin experiment)): 4.9 μm^3/μm^2
- Biovolume ([1]; ANP 10^−8 M alone, 2 h, non-treated 28.0 (imipenem experiment)): 6.9 μm^3/μm^2
- % Inhibition ([1]; ANP 10^−9 M 2 h, then sterile water 2 h (sequential experiment)): 68.7%
- Biovolume ([1]; ANP 10^−9 M 2 h, then sterile water 2 h (sequential experiment), non-treated 13.1): 4.1 μm^3/μm^2
- % Inhibition ([1]; ANP 10^−9 M alone, 2 h (table with tobramycin 10 μg/ml)): 66.4%
- % Inhibition ([1]; ANP 10^−9 M alone, 2 h (table with tobramycin 50 μg/ml)): 66.4%
- Biovolume ([1]; ANP 10^−9 M alone, 2 h, non-treated 13.5 (table with tobramycin 10 μg/ml)): 4.53 μm^3/μm^2
- Biovolume ([1]; ANP 10^−9 M alone, 2 h, non-treated 13.5 (table with tobramycin 50 μg/ml)): 4.53 μm^3/μm^2
- remaining bacterial biomass reduced compared with control ([1]; ANP (0.1 μM per Example 1), 30 minutes exposure (P<0.05)): 80.2±2.0%
- pre-established P. aeruginosa biofilms destroyed ([1]; low dose (on and after 0.1 nM), as soon as 30 min after administration): about 80%
- dispersion of established biofilm (observation) ([1]; on and after the lowest concentration of 0.3 ng/ml, as soon as after exposure for 30 min): strongly dispersed
- impact on the cytotoxic activity of P. aeruginosa in pulmonary cells ([2]; ANP 1 μM to 10 nM): no impact
- % LDH (dead cells) ([2]; PA14 + ANP 10^−6 M): 58.9 ± 5.8%
- % LDH (dead cells) ([2]; PA14 + ANP 10^−7 M): 53.5 ± 5.3%
- % LDH (dead cells) ([2]; PA14 + ANP 10^−8 M): 54.5 ± 5.5%
- binding onto the AmiC sensor of P. aeruginosa [3]: strong affinity
- formation of P. aeruginosa biofilm (P. aeruginosa biofilm): prevent the formation
- formation of a P. aeruginosa biofilm [4]: fully prevents
- effect on growth of P. aeruginosa (P. aeruginosa P14): None of the tested ANP concentrations affected bacterial growth

Reference: US20220249616A1, “Osteocrin, Lebetin or ANP for Destroying Bacterial Biofilms” (priority 2019, published 2022)
